Assay: Stability of the astaxanthin stereoisomer ratio (all-E form) in chloroform at 40° C., measured spectrophotometrically at 478 nm
Conditions: tempered at 40° C., stored, sampled periodically
Method: The solution was homogenized and the formulation was tempered at 40° C. The solution was stored and samples were taken periodically and the concentration of astaxanthin was measured spectrophotometrically at 478 nm.

| Compound | stabilisation of the all-E-form / ratio of stereoisomers of astaxanthin (FIG. 1 and FIG. 2) |
| --- | --- |
| CC(=O)[O-].[K+] [CH3COOK, potassium acetate] | stabilises the all-E-form better than K2CO3 |
| CC1=C(/C=C/C(C)=C/C=C/C(C)=C/C=C/C=C(C)/C=C/C=C(C)/C=C/C2=C(C)C(=O)[C@@H](O)CC2(C)C)C(C)(C)C[C@H](O)C1=O [astaxanthin] | the ratio is deteriorating usually |

Reference: patent publication US20160152540A1, “NEW PROCESS FOR THE MAINTAINING OF A RATIO OF ISOMERS OF CAROTENOID COMPOUNDS” (DSM IP ASSETS B.V., priority 2013, published 2016)
